Article PMC6155365, “A Phase 3 Study of Micafungin Versus Amphotericin B Deoxycholate in Infants With Invasive Candidiasis” (The Pediatric Infectious Disease Journal, 2018)
*1 amine or outer side, *2 acyl side, *3 side chain or, on linkers, in order; H or OH if unused. Where a SMILES comes first, the peptide text is derived from it. Bridges are numbered along the chain shown (N, C = ends). [ ]: non-standard residue; d: D form. The star is where a group is joined. hTyr(3S-OH,4S-OH,3'-OSO3H) = N[C@H](C(=O)O)[C@H](O)[C@@H](O)c1ccc(O)c(OS(=O)(=O)O)c1; Orn(4R-OH,5R-OH) = O=C([C@H](C[C@@H](O)[C@@H](O)N[*:3])N[*:1])[*:2]; Pro(3S-OH,4S-Me) = C[C@H]1CN[C@H](C(=O)O)[C@H]1O; X1 = CCCCCOc1ccc(-c2cc(-c3ccc(C(=O)*)cc3)no2)cc1; Gln(3R-OH) = NC(=O)C[C@@H](O)[C@H](N)C(=O)O; Hyp = O=C(O)[C@@H]1C[C@@H](O)CN1

Legend:
[1] = system: C. parapsilosis; assay: In vitro susceptibility MIC, CLSI M27-A3; type: cell-based, Candida parapsilosis
Procedure: (§1) All fungal isolates were identified to the genus and species level using standard techniques. Briefly, each isolate was subcultured in CHROMagar Candida (Becton Dickinson and Company, Sparks, MD) and molecular identification by sequencing of the internal transcribed spacer region and/or 28S ribosomal subunit. In vitro susceptibility testing was performed on all fungal isolates collected during the study to calculate the minimum inhibitory concentrations (MICs) according to Clinical Laboratory Standards Institutes (CLSI) methodology (M27-A3) and European Committee on Antimicrobial Susceptibility Testing (EUCAST) methodology (EDef7.1).[24],[25]

[2] = adults, 100 mg/d (approximately 2 mg/kg); cited from earlier work
Excerpt: AmB-D has been the standard of treatment for neonatal IC in the United States for many years,[7] but nephrotoxicity is a dose-limiting toxicity.[10] […] The use of fluconazole in infants may be limited because of the resistance of some Candida spp., its frequent use as prophylaxis in extremely premature infants, its poor activity against fungal biofilms and the high doses required to reach therapeutic concentrations.[9],[ ...

[3] = system: invasive candidiasis; settings: patients <16 years with IC; MCA 2 mg/kg, liposomal amphotericin B 3 mg/kg; cited from earlier work
Procedure: High rates of survival and successful treatment responses to MCA among patients <18 years of age with IC have been reported in prospective, observational studies.[32],[33] Success rates in pediatric studies are similar to the findings of our study in infants. For example, in a pediatric substudy from a randomized, double-blind study comparing MCA (2 mg/kg) with liposomal amphotericin B (3 mg/kg) in patients <16 years of age with IC, the investigators reported similar treatment success rates after MCA (defined as both a clinical and mycologic response at the end of therapy; 73% compared with 76 ...

[4] = system: C. parapsilosis; assay: In vitro susceptibility MIC, EUCAST EDef7.1; type: cell-based, Candida parapsilosis; settings: baseline isolate
Procedure: as §1

[5] = Population PK of MCA, linear 2-compartment model with body weight-based allometric scaling; type: in vivo; settings: Infants (this study), mean ± SD
Procedure: Up to 3 PK blood samples (≤300 µL) were collected from infants who participated in the PK portion of the study. A population PK approach was used to define the PK profile of MCA. A linear 2-compartment population PK model with body weight–based allometric scaling was developed in neonatal and pediatric patient populations by amending a previous model[19],[26] and including data from the current study in addition to 2 previous phase 1 studies and 1 previous phase 3 study in infants.[20],[27],[28] Individual post hoc estimates of PK parameters, simulated area under the curve (AUC) at steady state and maximum plasma concentration at the end of 2-hour infusion at once-daily dose of MCA 10 mg/kg were derived based on the model.
A population PK model was developed using data from this and 8 other studies (data on file at Astellas). A 2-compartment model with body weight–based allometric scaling and first-order elimination adequately described MCA PK data regardless of age. In this study, PK data were collected from 12 of 30 study participants (Table 2).

[6] = premature and nonpremature infants <2 years, 9 clinical trials; cited from earlier work
Excerpt: There was a slightly greater degree of nephrotoxicity at >25% baseline caused by AmB-D, although AmB-D-induced nephrotoxicity, defined as elevated serum creatinine, in the infant is usually reversible.[37] In understanding the relative tolerability of AmB-D in infants within the neonatal intensive care unit compared with older children, there are several hypotheses, including a greater nephronal reserve or the attention to appropriate hy ...

[7] = system: Candida spp. (invasive candidiasis); assay: Phase 3 randomized double-blind study, efficacy in infants with proven invasive candidiasis (NCT00815516); type: in vivo
Procedure: This was a phase 3, randomized, double-blind, multicenter, parallel-group, noninferiority study (ClinicalTrials.gov identifier: […] The follow-up was performed to capture emergent and recurrent fungal infections, to obtain a final safety evaluation and to check for resolution of those IC episodes that had not resolved by the end of treatment. […] An independent Data Review Panel reviewed and confirmed the diagnosis of IC and evaluated the efficacy outcome for each subject. Drug safety was evaluated by an unblinded Data Safety and Monitoring Board. […] FFS was defined as an infant alive and fungal free with no requirement for continued treatment with alternative antifungal therapy. […] Responses were defined as follows: complete response (resolution of all attributable signs related to fungal infection); partial response (improvement in attributable signs related to the fungal infection); stabilization (minor improvement or no change in attributable signs related to the fungal infection and the infant continued on therapy without deterioration); progression (deterioration in attributable signs related to the fungal infection or death presumably related to fungal infection). […] Persistence was defined by continued isolation or histologic documentation from a normally sterile site. […] Following positive Candida cultures, end-organ dissemination was assessed using abdominal ultrasound and/or computed tomography scanning, echocardiogram, head imaging with ultrasound, magnetic resonance imaging or computed tomography scanning or ophthalmoscopy. An emergent fungal infection was defined as a non-Candida invasive fungal infection detected at any time during the study or any invasive fungal infection detected >96 hours postbaseline involving a Candida spp. other than those detected at baseline.

[8] = Adverse events, safety analysis set
Procedure: Adverse events, biochemical and hematologic laboratory parameters and survival were assessed for all infants who received at least 1 dose of study drug. Treatment-emergent adverse events (TEAEs), defined as AEs occurring from the first dose of the study drug through 72 hours after the last dose, were summarized by treatment group.

[9] = irrespective of relatedness to study drug
[10] = possible or probable, as assessed by the investigator

For CCCCCOc1ccc(-c2cc(-c3ccc(C(=O)N[C@H]4C[C@@H](O)[C@@H](O)NC(=O)[C@@H]5[C@@H](O)[C@@H](C)CN5C(=O)[C@H]([C@H](O)CC(N)=O)NC(=O)[C@H]([C@H](O)[C@@H](O)c5ccc(O)c(OS(=O)(=O)O)c5)NC(=O)[C@@H]5C[C@@H](O)CN5C(=O)[C@H]([C@@H](C)O)NC4=O)cc3)no2)cc1 [MCA, micafungin] (X1-[Orn(4R-OH,5R-OH)]T[Hyp][hTyr(3S-OH,4S-OH,3'-OSO3H)][Gln(3R-OH)][Pro(3S-OH,4S-Me)]; lactam 1-C), the “MCA MIC, CLSI” value ([1]; baseline isolate, persistent infection 1 of 2 in MCA group) was 1 µg/mL, the “MCA MIC, CLSI” value ([1]; baseline isolate, the other persistent infection in MCA group) was 1 µg/mL and the “MCA MIC, CLSI” value ([1]; follow-up isolates collected on day 19, both MCA-treated infants) was 1 µg/mL. For the same molecule, the “Mean exposure (AUC)” value [2] was 100000 ng·h/mL, the “Treatment success rate (clinical and mycologic response at end of therapy)” value [3] was 73% and the “MCA MIC, EUCAST” value ([4]; persistent infection 1 of 2 in MCA group) was 1 µg/mL. The “MCA MIC, EUCAST” value ([4]; the other persistent infection in MCA group) was 0.5 µg/mL, the CL ([5]; N = 12, MCA 10 mg/kg iv, individual post hoc estimates) was 0.068 ± 0.039 (0.022–0.147) L/h and the CL ([5]; N = 12, MCA 10 mg/kg iv) was 0.487 ± 0.200 (0.225–0.876) mL/min/kg. For the same molecule, the Vss ([5]; N = 12, MCA 10 mg/kg iv) was 0.480 ± 0.159 (0.306–0.799) L/kg, the t1/2 ([5]; N = 12, MCA 10 mg/kg iv) was 12.25 ± 2.87 (7.51–16.92) h and the AUCss ([5]; N = 12, simulated at 10 mg/kg once daily, 2-hour infusion) was 399.32 ± 163.88 (190.33–742.30) μg·h/mL. For the same molecule, the “C2h (steady-state plasma concentration at end of 2-hour infusion)” value ([5]; N = 12, simulated at 10 mg/kg, 2-hour infusion) was 31.06 ± 10.53 (17.01–49.69) μg/mL, the “Treatment-related TEAEs, patients” value [6] was 23% and the “Early discontinuation of treatment: lack of efficacy” value ([7]; MCA n = 20, AmB-D n = 10) was 1 (5%) n (%). The Positive clinical response ([7]; at end of study and 1 week after last dose, infants with signs at baseline (MCA 18, AmB-D 10)) was 61%, the “Infants alive at 1 week after last dose but not fungal free” value ([7]; did not meet primary efficacy end point, MCA n = 20, AmB-D n = 10) was 5 (25%) n (%) and the “Early discontinuation of treatment: AEs” value ([8]; MCA n = 20, AmB-D n = 10) was 3 (15%) n (%). The Electrolyte supplementation received ([8]; MCA n = 20, AmB-D n = 10) was 6 (30%) n (%), the “TEAEs: Blood and lymphatic system disorders” value ([8]; MedDRA system organ class) was 10 (50) n (%) and the “TEAEs: General disorders and administration site conditions” value ([8]; MedDRA system organ class) was 3 (15) n (%). For the same molecule, the “TEAEs: Infections and infestations” value ([8]; MedDRA system organ class) was 11 (55) n (%), the “TEAEs: Investigations” value ([8]; MedDRA system organ class) was 5 (25) n (%) and the “TEAEs: Metabolism and nutrition disorders” value ([8]; MedDRA system organ class) was 1 (5) n (%). The “TEAEs: Respiratory, thoracic and mediastinal disorders” value ([8]; MedDRA system organ class) was 0 n (%), the “TEAEs: Skin and subcutaneous tissue disorders” value ([8]; MedDRA system organ class) was 1 (5) n (%) and the “TEAEs: Vascular disorders” value ([8]; MedDRA system organ class) was 3 (15) n (%). The Deaths ([8]; all deaths reported from the study) was 3 (15) n (%), the Magnesium supplementation ([8]; in vivo) was 3 (15%) n (%) and the Potassium supplementation ([8]; in vivo) was 2 (10%) n (%). The TEAE anemia [8, 9] was 9 (45%) n (%), the TEAE thrombocytopenia [8, 9] was 2 (10%) n (%) and the SAE anemia ([8]; most common SAE in the MCA group) was 4 (20%) n (%). The “Drug-related TEAEs” value [8, 10] was 11 (55) n (%), the “Drug-related TEAEs leading to death” value [8, 10] was 0 n (%) and the “Drug-related serious TEAEs” value [8, 10] was 6 (30) n (%). For the same molecule, the “Serious TEAEs” value ([8]; safety analysis set) was 12 (60) n (%) and the TEAEs ([8]; safety analysis set, MCA N = 20 (10 mg/kg/d), AmB-D N = 10 (1 mg/kg/d)) was 18 (90) n (%).
